Source: publication PMC4941645, “Oxidative Stress Induced by Pt(IV) Pro-drugs Based on the Cisplatin Scaffold and Indole Carboxylic Acids in Axial Position” (Scientific Reports, 2016)

How the values were obtained:
[1] = system: BxPC3 pancreatic carcinoma cells; assay: MTT cytotoxicity test, BxPC3; assay type: cell-based, human; settings: for IC50: BxPC3, 72 h, MTT, ± S.D.; for times more effective than cisplatin: BxPC3 cells
Method: (§1) The cytotoxic activity of the complexes and of the uncoordinated ligands was evaluated by the MTT test on a panel of human tumor cell lines containing examples of pancreatic (BxPC3), colorectal (HCT-15), breast (MCF-7), cervical (A431), and lung (A549) cancers as well as of melanoma (A375). For comparison purposes, the cytotoxicity of cisplatin was evaluated under the same experimental conditions.
(§2) Cisplatin was dissolved in 0.9% NaCl solution.
(§3) Human breast (MCF-7), colon (HCT-15), lung (A549) and pancreatic (BxPC3) carcinoma cell lines together with melanoma (A375) cells were obtained from American Type Culture Collection (ATCC, Rockville, MD). The human ovarian cancer cell line 2008 and its cisplatin resistant variant, C13*, were kindly provided by Prof. G. Marverti (Department of Biomedical Science of Modena University, Italy). Human cervical carcinoma (A431) cells were kindly provided by Prof. F. Zunino (Division of Experimental Oncology B, Istituto Nazionale dei Tumori, Milan, Italy). Cell lines were maintained in the logarithmic phase at 37 °C in a 5% carbon dioxide atmosphere using the following culture media containing 10% fetal calf serum (Euroclone, Milan, Italy), antibiotics (50 units/mL penicillin and 50 μg/mL streptomycin) and 2 mM L-glutamine: (i) RPMI-1640 medium (Euroclone) for 2008, C13*, MCF-7, HCT-15, A431 and BxPC3 cells, (ii) F-12 HAM’S (Sigma Chemical Co.) for A549 cells, iii) DMEM (Sigma Chemical Co.) for A375 cells.
(§4) The growth inhibitory effect toward tumor cells was evaluated by means of the MTT assay. Briefly, (3–8) × 10^3 cells/well, dependent upon the growth characteristics of the cell line, were seeded in 96-well microplates in growth medium (100 μL). After 24 h, the medium was removed and replaced with fresh medium containing the compound to be studied at the appropriate concentration. Triplicate cultures were established for each treatment. After 24, 48, or 72 h, each well was treated with 10 μL of a 5 mg/mL MTT saline solution and, after 5 h of incubation, 100 μL of a sodium dodecylsulfate (SDS) solution in 0.01 M HCl was added. After an overnight incubation, cell growth inhibition was detected by measuring the absorbance of each well at 570 nm using a Bio-Rad 680 microplate reader. The mean absorbance for each drug dose was expressed as a percentage of the control, untreated well absorbance and plotted vs drug concentration. The IC50 values, the drug concentrations that decrease the mean absorbance at 570 nm to 50% of that of untreated control wells, were calculated from the dose–response curves with the four-parameter logistic model (4PL). The final value is the mean ± S.D. of at least three independent experiments performed in triplicate.

[2] = Stability in physiological saline by mass spectrometry; assay type: physicochemical; settings: 0.9% NaCl
Method: Ten indole carboxylic acid Pt(IV) complexes with IAA (indole-3-acetic acid, 1A–5A) and IPA (indole-3-propionic acid, 1P–5P) were synthesized and the structures are depicted in Fig. 3. The monocarboxylato complexes 1A and 1P were prepared by reacting oxoplatin, c,c,t-[Pt(NH3)2Cl2(OH)2], with 0.8 eq. of the activated NHS-ester of the corresponding indole carboxylic acid. The dicarboxylato complexes with two indole acids in axial position (2A and 2P) were obtained using an excess of the NHS-ester activated acid (20 eq.), since the second hydroxo group of oxoplatin is much less reactive than the first one. The unsymmetrically substituted complexes (3A–5A and 3P–5P) were prepared by reaction of the monocarboxylate complexes 1A and 1P with the corresponding anhydrides. We chose three different anhydrides (benzoic, acetic and succinic anhydride) to vary the lipophilicity of the resulting Pt(IV) complexes. All the synthesized Pt(IV) complexes were characterized using elemental analysis, ESI-MS, FT-IR, ^1H and ^195Pt NMR spectroscopy. The purity of the complexes has been assessed through elemental analysis and–where solubility was not an issue–by high performance liquid chromatography (HPLC). The dicarboxylato complexes are poorly soluble in organic solvents. The proton NMR spectra of the complexes in DMSO-d6 show the typical signal of the NH3 protons which is a multiplet at around 6 ppm for the monocarboxylato complexes 1P and 1A (typical ^1JNH and ^2JPtH values around 50 Hz) while it is a broad signal around 6.5 ppm for the bis-substituted complexes (2–5A and 2–5P, Supplementary Information)[44]. The mass spectra of the complexes show a peak in the negative mode with the typical platinum isotope pattern corresponding to M − H^− or M + Cl^−. Stability studies on representative examples of the complexes (1A, 1P, 3A and 3P) via mass spectrometry confirm that the complexes are stable in physiological saline (0.9% NaCl) for at least 48 h (Supplementary Information).
Complexes 1A, 1P, 3A and 3P where dissolved in a minimum amount of DMF and diluted 1:20 with physiological saline (0.9% NaCl). Mass spectra were recorded at t = 0 and after 48 hours.

[3] = system: HCT-15 colon carcinoma cells; assay: MTT cytotoxicity test, HCT-15; assay type: cell-based, human; settings: for IC50: HCT-15, 72 h, MTT, ± S.D.; for times more effective than cisplatin: HCT-15 cells
Method: as §1, §2, §3, §4

[4] = system: MCF-7 breast carcinoma cells; assay: MTT cytotoxicity test, MCF-7; assay type: cell-based, human; settings: MCF-7, 72 h, ± S.D.
Method: as §1, §2, §3, §4

[5] = system: A431 cervical carcinoma cells; assay: MTT cytotoxicity test, A431; assay type: cell-based, human; settings: A431, 72 h, ± S.D.
Method: as §1, §2, §3, §4

A375 cells = assay: ROS production (CM-H2DCFDA probe); assay type: cell-based, human; settings: A375, 12.5 μM, compared with antimycin positive control
Method: ROS are products of normal cell metabolism but their levels can be increased upon exposure to toxic agents or interference with the cellular redox network. […] Consequently, cellular ROS levels upon treatment with equal doses (12.5 μM) of the different platinum complexes were monitored in A375 cancer cells by using the peroxide-sensitive fluorescent probe CM-H2DCFDA (5-(and-6)-chloromethyl-2′,7′-dichlorodihydrofluorescein diacetate, acetyl ester). Antimycin, a classical inhibitor of the mitochondrial respiratory chain at the level of complex III, was used as a positive control.
Figure 8 ROS production in A375 cells. Cells were preincubated in PBS/10 mM glucose medium for 20 min at 37 °C in the presence of 10 μM CM-DCFDA and then treated with equimolar doses (12.5 μM) of indole propionic acid Pt(IV) derivatives (panel A) or indole acetic acid Pt(IV) derivatives (panel B). The fluorescence of DCF was measured.
The production of ROS was measured in A375 cells (10^4 per well) grown for 24 h in 96-well plates in DMEM medium without phenol red (Sigma Chemical Co.). Cells were then washed with PBS and loaded with 10 μM 5-(and-6)-chloromethyl-2′,7′-dichlorodihydrofluorescein diacetate, acetyl ester (CM–H2DCFDA) (Molecular Probes-Invitrogen) for 25 min in the dark. Afterwards, cells were washed with PBS and incubated with increasing concentrations of the tested complexes. The fluorescence increase was estimated with a plate reader (Fluoroskan Ascent FL, Labsystem, Finland) at 485 (excitation) and 527 nm (emission). Antimycin (3 μM, Sigma Chemical Co.), a potent inhibitor of Complex III in the electron transport chain, was used as positive control.

Row | SMILES | IC50 [1] | stable in physiological saline [2] | IC50 [3] | IC50 [4] | IC50 [5] | ROS production (in words) (A375 cells) | times more effective than cisplatin [1] | times more effective than cisplatin [3]
1 | [NH2][Pt]([NH2])([Cl])([Cl])([O]C(=O)Cc1c[nH]c2ccccc12)[O]C(=O)c1ccccc1 [Complex 3A] | 2.56 ± 1.07 µM | at least 48 h | 3.67 ± 1.31 µM | 3.76 ± 0.76 µM | 6.31 ± 0.94 µM | – | – | –
2 | [NH2][Pt]([NH2])([Cl])([Cl])([O]C(=O)CCC(=O)O)[O]C(=O)Cc1c[nH]c2ccccc12 [Complex 4A] | > 50 µM | – | > 50 µM | > 50 µM | 3.94 ± 0.57 µM | did not alter the cellular ROS concentration | – | –
3 | CC(=O)[O][Pt]([NH2])([NH2])([Cl])([Cl])[O]C(=O)Cc1c[nH]c2ccccc12 [Complex 5A] | 44.4 ± 6.19 µM | – | 44.75 ± 0.07 µM | 43.26 ± 0.22 µM | 3.07 ± 0.31 µM | did not alter the cellular ROS concentration | – | –
4 | [NH2][Pt]([NH2])([OH])([Cl])([Cl])[O]C(=O)Cc1c[nH]c2ccccc12 [Complex 1A] | 2.64 ± 0.97 µM | at least 48 h | 9 ± 3.13 µM | 3.62 ± 0.94 µM | 2.1 ± 1.04 µM | – | four times | about two times
5 | [NH2][Pt]([NH2])([OH])([Cl])([Cl])[O]C(=O)CCc1c[nH]c2ccccc12 [Complex 1P, cis,cis,trans-[Pt(NH3)2Cl2(IPA)(OH)]] | 2.26 ± 0.99 µM | at least 48 h | 3.66 ± 0.91 µM | 3.78 ± 0.16 µM | 1.62 ± 0.34 µM | superior to that induced by antimycin | four times | about two times
